What was measured:
[1] = Pharmacokinetics in mice, subcutaneous vs intravenous; details: mouse, in vivo
Description: The nonclinical pharmacokinetics (PK) of subcutaneously, intravenously, or intratumorally administered Compound A was investigated in mice at the doses of 0.1 and/or 0.5 mg/kg.

[2] = Toxicological studies in the rat; type: in vivo
Excerpt: The toxicological evaluations of Compound A included studies in the rat and cynomolgus monkey (non-human primate [NHP]) and should be relevant to assessing potential human risk, as the STING pathway, the target of Compound A, is conserved across species.
The non-good laboratory practice (GLP) studies in the rat and NHP covered a broad range of doses and regimens. The objective of these studies was to evaluate the effects of Compound A following multiple ascending doses, single doses, and multiple doses.

[3] = tested on: IFNβ and other cytokines; test: Cytokine production induced in mice; type: in vivo, C57BL/6 mice
Description: The pharmacokinetic/pharmacodynamic properties of Compound A were evaluated in C57BL/6 mice following dosing by subcutaneous, intramuscular, or intravenous routes of administration. Blood was collected post-dosing for the measurement of Compound A and cytokine levels in plasma.

[4] = tested on: B16F10 melanoma; test: B16F10 melanoma syngeneic tumor model; type: in vivo, C57BL/6 mice
Description: To assess therapeutic activity of Compound A, C57BL/6 immune competent mice received subcutaneous implants of B16F10 melanoma cells on the right flank. Five days later, when tumor volumes were between 50 and 100 mm^3, the mice were intratumorally dosed with 0.1, 0.3, or 1.0 µg (equivalent to 0.005, 0.015, or 0.05 mg/kg) of Compound A alone, or in combination with 200 µg of PD-L1 antibody (clone 10F.9G2 available from Bio-X-Cell (catalog # BE0101)). Dosing was repeated every 3-4 days for 4 total doses. […] Once again, the effect was enhanced when Compound A was administered together with the PD-L1 antibody.

[5] = tested on: 4T1 (breast cancer); test: 4T1 PD-L1 antibody-resistant tumor model; type: in vivo, BALB/c mice
Description: (§1) Compound A was evaluated alone and in combination with 200 µg of the PD-L1 antibody used in Example 6 in immune checkpoint blockade-resistant tumors. In these studies, mice were implanted with LL2 (lung cancer), 4T1 (breast cancer), AG104Ld (fibrosarcoma), and AG104A (fibrosarcoma) tumors. Following implantation, the animals were dosed intratumorally or subcutaneously with 0.5 mg/kg of Compound A alone or in combination with the PD-L1 antibody, as shown in the table below: […]

[6] = tested on: LL2 (lung cancer); test: LL2 PD-L1 antibody-resistant tumor model; type: in vivo, C57BL/6 mice
Description: as §1

[7] = tested on: AG104A (fibrosarcoma); test: AG104A PD-L1 antibody-resistant tumor model; type: in vivo, B6C3F1 mice; details: Compound A 0.5 mg/kg SC, days 4, 7, 10, 14, 17, 21; PD-L1 antibody 200 µg
Description: as §1

[8] = tested on: AG104Ld (fibrosarcoma); test: AG104LD PD-L1 antibody-resistant tumor model; type: in vivo, B6C3F1 mice; details: Compound A 0.5 mg/kg SC, days 4, 7, 11, 14, 18, 21; PD-L1 antibody 200 µg
Description: as §1

[9] = tested on: B16 melanoma lung metastasis; test: B16 melanoma lung metastasis model; type: in vivo, mouse; details: intratumoral days 5, 8, 11; PD-L1 antibody 200 µg
Description: A B16 melanoma lung metastasis model was used to evaluate the effect of Compound A on tumor metastasis. Compound A was administered intratumorally on days 5, 8, and 11 after tumor inoculation alone or in combination with a PD-L1 antibody (200 µg of the antibody used in Example 6).

[10] = Cynomolgus monkey toxicity and toxicokinetics, subcutaneous (Phases I-III, priming dose); type: in vivo, cynomolgus monkeys
Description: (§2) Male and female cynomolgus monkeys were assigned to groups and doses of Compound A were administered. Animals were dosed via subcutaneous injection at a volume of 2 mL/kg. The vehicle control article/diluent was phosphate-buffered saline (PBS).

[11] = tested on: IFNα, IL-6, TNFα and other cytokines; test: Plasma cytokine levels in cynomolgus monkeys; type: in vivo
Description: as §2
Escalation of Compound A dose levels was tolerated up to 3.0 mg/kg/dose, with findings limited to increased body temperature and elevated IFNα, IL-6, and TNFα cytokine levels. IFNα, TNFα, and IL-6 levels were measured at 3, 6, and 12 hours post-dosing. Dose related but variable changes were observed. […] TNFα levels increased at 3 hours in the 1 mg/kg group. […] The cytokine responses are consistent with the predicted STING pathway activation.

[12] = tested on: syngeneic tumors; test: Combination with PD-L1 antibody in multiple syngeneic tumor models; type: in vivo, mouse; details: tumors otherwise refractory to immune checkpoint inhibitors
Excerpt: Several of these studies are described in the examples below.

## Nc1nc2c(ncn2[C@@H]2O[C@@H]3COP(=O)(O)OC4C(O)[C@H](n5cnc6c(N)ncnc65)O[C@@H]4COP(=O)(O)OC2C3OCC(F)(F)F)c(=O)[nH]1 (stereo partly shown) [Compound A]
[1]; sc, subcutaneous 0.5 mg/kg, male mice, subcutaneous AUC0-t vs intravenous AUC0-t, read-out: bioavailability (F)
  bioavailability: 121%
[1]; mice, systemic compartment, read-out: clearance (CL) (converted)
  clearance: 16.8 mL/min/kg
[1]; mice, read-out: t½
  half-life: ~15 min
[1]; mice, read-out: volume of distribution (Vss)
  Vd: 0.255 L/kg
[2]; 3.0 mg/kg dose level
  mortality: Mortality was also seen
[2]; GLP rat study, high doses group 10 and 30 mg/kg
  mortality: Mortality was seen
[2]; mid and high dose levels, rat study
  moribundity and death: Moribundity and death was seen
[2]; rat and NHP toxicology studies, multiple dose
  toxicokinetic findings: no sex related differences, dose proportionality, and no accumulation
[2]; rat, highest dose levels
  cause of deaths: pulmonary edema
[3]; 0.50 mg/kg
  cytokine induction: very low levels of cytokines
[3]; 3 hours post dosing
  IFNβ in blood: High levels of IFNβ
[3]; 12 hours post dosing
  IFNβ levels in blood: near the BLOQ
[3]; dose levels that showed significant antitumor efficacy
  cytokine induction: only induced low levels of cytokine
[3]; following administration
  time at which cytokine production was seen: 3 to 6 h
  time to decrease of cytokines to BLOQ: ≤ 12 h
[3]; subcutaneous 0, 0.15, 0.50, 1.50, 5, 15, 50 mg/kg, 3 and 6 hours post injection
  induction of IFNβ and other cytokines: dose-dependent induction of IFNβ
[4]
  efficacious dose range (dose-dependent): 0.1 to 10 µg
[4]; 0.005 mg/kg
  tumor growth and survival: sufficient to inhibit tumor growth and prolong survival
[4]; Compound A 0.1, 0.3 or 1.0 µg intratumoral, PD-L1 antibody 200 µg, FIG. 3 Panels A-C
  tumor volume: significantly reduced tumor volume at all dose levels
[4]; Compound A 0.1, 0.3 or 1.0 µg intratumoral, PD-L1 antibody 200 µg, FIG. 3 Panels E-G
  survival time: significantly increased the survival time
[4]; intratumoral
  tumor growth inhibition: highly effective in inhibiting tumor growth
[4]; intratumoral, compared to controls
  tumor growth and survival: dose-dependent suppression of tumor growth and prolonged survival
[4]; intratumoral, every 3-4 days, 4 doses (0.1 µg/mice)
  lowest dose with decreased tumor growth and prolonged survival: 0.005 mg/kg
[4]; subcutaneous
  anti-tumor efficacy: also effective
[5]; Compound A 0.5 mg/kg IT, days 5, 8, 11, 15, PD-L1 antibody 200 µg
  efficacy (tumor growth and survival): suppressed tumor growth and prolonged mouth survival
[5]; intratumoral
  tumor growth inhibition: highly effective in inhibiting tumor growth
[6]; Compound A 0.5 mg/kg IT, days 5, 10, 14, 17, PD-L1 antibody 200 µg
  efficacy (tumor growth and survival): suppressed tumor growth and prolonged mouth survival
[6]; intratumoral
  tumor growth inhibition: highly effective in inhibiting tumor growth
[7]
  efficacy (tumor growth and survival): suppressed tumor growth and prolonged mouth survival
[8]
  efficacy (tumor growth and survival): suppressed tumor growth and prolonged mouth survival
[9]
  number of metastases in the lung: dramatically reduced
  primary tumor volume: significant reduction in tumor volume
[10]; 10 mg/kg/dose, Phase I
  morbidity: Morbidity was observed within 1 day
[10]; 0.3 to 3 mg/kg/day, Day 1 of Phase II
  exposure (mean Cmax, AUC0-2, AUC0-8, AUC0-24) vs dose: generally dose-proportional
[10]; 0.6 or 1.0 mg/kg/day
  compound-related findings: limited to a transient body temperature increase and mild to moderate clinical and anatomic pathology findings
[10]; 3 weekly doses of 0.6 mg/kg without a priming dose
  tolerability: tolerated
[10]; 3 weekly doses of 1.0 mg/kg/day preceded by a priming dose of 0.1 mg/kg
  tolerability: tolerated
[10]; Phase I, subcutaneous dose escalation
  tolerated dose on escalation: up to 3.0 mg/kg/dose
[10]; Phase II, 3 mg/kg in naïve animals
  tolerability: not tolerated and led to clinical observations of morbidity or death within 1 day of dosing
[10]; Phase II, 3 weekly administrations of 0.3 mg/kg
  tolerability: tolerated
[10]; Phase III, three weekly doses of 0.6 or 1.0 mg/kg/day
  survival of animals: survived until scheduled sacrifice
[10]; monkeys
  sex differences in mean Cmax, AUC0-2, AUC0-8, AUC0-24: less than 2 fold
[10]; multiple doses of 0.3 mg/kg/day
  accumulation: No accumulation
[10]; naïve animals
  dose not tolerated (acute morbidity and/or death): ≥ 3.0 mg/kg
[10]; ≥ 3.0 mg/kg, naïve animals
  cause of acute morbidity and/or death: pulmonary edema
[11]; 1 mg/kg and 3 mg/kg groups, 3 and 6 hours post dosing
  IFNα levels: Moderate levels of IFNα
[11]; 1 mg/kg group, 3 hours
  TNFα levels: increased
[11]; 3 mg/kg and 10 mg/kg groups
  TNFα levels: Lower levels of TNFα
[11]; 3 mg/kg and 10 mg/kg, 12 hours postdose
  IL-6 increases: persisted at 12 hours postdose
[11]; NHP, non-GLP studies of Example 2
  cytokine levels, time course: increases in the first 3-6 hours with return to baseline in most cases by 6-24 hours
[11]; all groups, 3 and 6 hours post dosing
  plasma IL-6 levels: Increases in plasma IL-6 levels
[12]
  responsiveness to PD-L1 antibody: restored responsiveness to PD-L1 antibody

— US20230270773A1, “METHODS OF TREATING CANCER WITH A STING AGONIST” (Immunesensor Therapeutics, Inc., priority 2019, published 2023)
